Values joined by “and” are separate entries in the source; they are usually repeats but may differ in a detail not shown here. Equal entries are not always repeated.
Assay: mn = molality of the nth substance listed, in mol/kg
Settings: 101 kPa, Liquid, Sing-around technique in a fixed-path interferometer

CC(CO)CO [2-methyl-1,3-propanediol] + O
speed of sound
Settings	278.15 K	283.15 K	288.15 K	293.15 K	298.15 K	308.15 K	318.15 K
m1 = 0.1097	1434 m/s	1454.5 m/s and 1454.4 m/s	1472.6 m/s	1488.5 m/s	1502.3 m/s and 1502.4 m/s	1524.7 m/s	1540.4 m/s and 1540.6 m/s
m1 = 0.1997	1440.3 m/s and 1440.4 m/s	1460.3 m/s	1477.9 m/s and 1478 m/s	1493.4 m/s	1506.9 m/s	1528.6 m/s	1543.8 m/s and 1544 m/s
m1 = 0.3091	1448 m/s	1467.3 m/s	1484.4 m/s	1499.4 m/s	1512.4 m/s	1533.6 m/s and 1533.3 m/s	1547.8 m/s and 1548 m/s
m1 = 0.3983	1454.1 m/s	1472.9 m/s and 1473 m/s	1489.6 m/s	1504.1 m/s and 1504.2 m/s	1516.8 m/s	1537.3 m/s and 1537 m/s	1551.1 m/s and 1551.2 m/s

CCC(CO)(CO)COCC(CC)(CO)CO [3,3,7,7-tetrakis(hydroxymethyl)-5-oxanonane] + O
speed of sound
Settings	278.15 K	283.15 K	288.15 K	293.15 K	298.15 K	308.15 K	318.15 K
m1 = 0.01972	1429.8 m/s	1450.6 m/s	1469 m/s	1485.2 m/s	1499.3 m/s	1522.2 m/s and 1522 m/s	1538.2 m/s and 1538.3 m/s
m1 = 0.04105	1433.6 m/s and 1433.7 m/s	1454.1 m/s	1472.3 m/s	1488.2 m/s	1502.1 m/s	1524.5 m/s and 1524.3 m/s	1540.2 m/s and 1540.3 m/s
m1 = 0.06045	1437.1 m/s	1457.3 m/s	1475.2 m/s	1490.9 m/s	1504.6 m/s	1526.6 m/s and 1526.4 m/s	1542 m/s and 1542.1 m/s
m1 = 0.079	1440.3 m/s	1460.3 m/s	1478 m/s	1493.4 m/s	1506.9 m/s	1528.6 m/s and 1528.4 m/s	1543.7 m/s and 1543.8 m/s

— the NIST ThermoML archive (doi:10.1021/je300175w)
